Tests used:
[1] = target: elastase from Pseudomonas aeruginosa (Pseudomonas aeruginosa, UniProt P14756); test: in vitro; conditions: for RRT 0.66 degradation fragment, normalized peak area / RRT 0.88 degradation fragment, normalized peak area: elastase:peptide approx. 1:2500, 37° C.
Description: (§1) In this study we compared the enzymatic degradation rate of LL-37 in an aqueous buffered system to that of a colloidal solution of LL-37 in a galactolipid complex. The experimental procedures for enzymatic degradation were essentially as described using a reverse phase HPLC system (C-18) operating at 210 nm.
(§2) In brief: Two stock solutions A and B were prepared. Solution A, “the reference”, contained 100 μg/ml of LL-37 in PBS, pH 7.4. Solution B, “the complex”, contained in addition to 100 μg/ml LL-37 in PBS, pH 7.4, 0.2% of galactolipids (w/w). Two sets of samples were prepared in Eppendorf tubes, 8 tubes from each stock solution. […] The reactions were kept at 37° C. and samples were withdrawn at predetermined intervals. The reactions were stopped by heating the samples to 100° C. for 5 minutes. After stopping, the reactions were stored at −18° C. prior analysis.
(§3) All samples were analysed in duplicates and the peak area for LL-37 was normalized to that of the negative control, which was set to 1.00. Retention times are given as relative retention time (RRT) to LL-37, which is set to RRT=1.00.

[2] = system: elastase from Pseudomonas aeruginosa; test: in vitro; conditions: isolated enzyme elastase, pH 7.4
Description: as §1, §2, §3

[3] = Ocular inspection of appearance of aqueous peptide/CPL-Galactolipid mixtures; format: physicochemical; conditions: after 2 h and 2 days of storage at room temperature; 0.20% CPL-Galactolipid; LL-25 68-98 ppm, LL-37 98-213 ppm, LL-38 50-102 ppm, LL-20 52-98 ppm
Description: To prepare the solution of the complex the peptide and CPL-Galactolipid are weighed in a 100 ml glass flask and then PBS (10 mM sodium phosphate, 150 mM NaCl, pH 7.4) is added. The sample is vigorously shaken, using a suitable shaker at high speed, for 1-2 h or until the mixture has become clear, and is then allowed to equilibrate and settle for about 30 min at room temperature. Samples of LL-20, LL-25, LL-37 and LL-38 as trifluoroacetate salts and CPL-Galactolipid were prepared using the amounts stated in Table 1 below. The peptide mixtures all contained 0.20% CPL-Galactolipid.
Ocular inspections were made after 2 h and 2 days of storage at room temperature of the mixtures. […] The molecular weight of LL-20 was calculated to be 2.4 kDa.

Bacillius megaterium = test: Inhibition zone assay of antimicrobial activity; format: cell-based; conditions: complex with CPL-Galactolipid; LL-25 at 68 ppm
Description: Test of antimicrobial activity of LL-20 and LL-25 complexes The antimicrobial activity was tested using an inhibition zone assay. As a test bacterium, Bacillius megaterium was used.

[4] = at certain weight ratios; cited from earlier work
[5] = when complexed with galactolipids; cited from earlier work

Chain of elastase from Pseudomonas aeruginosa (Pseudomonas aeruginosa, UniProt P14756) (P14756 198-498): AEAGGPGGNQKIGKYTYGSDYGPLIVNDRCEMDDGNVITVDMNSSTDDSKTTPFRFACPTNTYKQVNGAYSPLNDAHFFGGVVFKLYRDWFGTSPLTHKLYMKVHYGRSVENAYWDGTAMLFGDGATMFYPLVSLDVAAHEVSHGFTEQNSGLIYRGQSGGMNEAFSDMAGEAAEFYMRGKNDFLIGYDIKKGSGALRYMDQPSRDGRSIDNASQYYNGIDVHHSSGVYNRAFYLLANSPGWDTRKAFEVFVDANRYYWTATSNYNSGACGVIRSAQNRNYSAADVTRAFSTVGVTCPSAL

Compound: CC[C@H](C)[C@H](NC(=O)[C@H](CCCCN)NC(=O)[C@H](CCC(=O)O)NC(=O)[C@H](CCCCN)NC(=O)[C@H](CO)NC(=O)[C@H](CCCCN)NC(=O)[C@H](CCCNC(=N)N)NC(=O)[C@H](Cc1ccccc1)NC(=O)[C@H](Cc1ccccc1)NC(=O)[C@H](CC(=O)O)NC(=O)CNC(=O)[C@H](CC(C)C)NC(=O)[C@@H](N)CC(C)C)C(=O)NCC(=O)N[C@@H](CCCCN)C(=O)N[C@@H](CCC(=O)O)C(=O)N[C@@H](Cc1ccccc1)C(=O)N[C@@H](CCCCN)C(=O)N[C@@H](CCCNC(=N)N)C(=O)N[C@H](C(=O)N[C@H](C(=O)N[C@@H](CCC(N)=O)C(=O)N[C@@H](CCCNC(=N)N)C(=O)N[C@H](C(=O)N[C@@H](CCCCN)C(=O)N[C@@H](CC(=O)O)C(=O)N[C@@H](Cc1ccccc1)C(=O)N[C@@H](CC(C)C)C(=O)N[C@@H](CCCNC(=N)N)C(=O)N[C@@H](CC(N)=O)C(=O)N[C@@H](CC(C)C)C(=O)N[C@H](C(=O)N1CCC[C@H]1C(=O)N[C@@H](CCCNC(=N)N)C(=O)N[C@H](C(=O)N[C@@H](CCC(=O)O)C(=O)N[C@@H](CO)C(=O)O)[C@@H](C)O)C(C)C)[C@@H](C)CC)C(C)C)[C@@H](C)CC [LL-37 in aqueous buffer]
- RRT 0.66 degradation fragment, normalized peak area ([1]; 1 min): 0.1
- RRT 0.88 degradation fragment, normalized peak area ([1]; 1 min): 0.4
- RRT 0.66 degradation fragment, normalized peak area ([1]; 5 min): 0.14
- RRT 0.88 degradation fragment, normalized peak area ([1]; 5 min): 0.36
- RRT 0.66 degradation fragment, normalized peak area ([1]; 15 min): 0.27
- RRT 0.88 degradation fragment, normalized peak area ([1]; 15 min): 0.04
- RRT 0.66 degradation fragment, normalized peak area ([1]; 30 min): 0.54
- RRT 0.66 degradation fragment, normalized peak area ([1]; 1 h): 0.46
- RRT 0.66 degradation fragment, normalized peak area ([1]; 4 h): 0.31
- RRT 0.66 degradation fragment, normalized peak area ([1]; 20 h): 0.08
- Degradation when treated with elastase ([1]; elastase from Pseudomonas aeruginosa, 37° C., up to 20 h): rapidly degraded
- RRT 1.00 (LL-37) peak area normalized to negative control (1.00) ([1]; time 0, 100 μg/ml LL-37, PBS pH 7.4, 37° C.): 1.00
- remaining at 1 min, 100 μg/ml [2]: 30%
- remaining at 5 min, 100 μg/ml [2]: 23%

Compound: LLGDFFRKSKEKIGKEFKRIVQRIK [LL-25]
- Ocular inspection of the mixtures [3]: clear or almost clear solutions
- Antimicrobial activity (Bacillius megaterium): showed an antimicrobial activity

Compound: LLGDFFRKSKEKIGKEFKRIVQRIKDFLRNLVPRTES [LL-37]
- Ocular inspection of the mixtures [3]: clear or almost clear solutions
- Formation of colloidal solutions with galactolipids [4]: formed stable, clear colloidal solutions
- In vitro cytotoxicity [5]: reduced

Compound: LLGDFFRKSKEKIGKEFKRIVQRIKDFLRNLVPRTESS [LL-38]
- Ocular inspection of the mixtures [3]: clear or almost clear solutions
